Source: patent publication US11834698B2, “Process for determining enzyme activity in a cell by activity-based reporter gene technology (ABRGT)” (INDIAN INSTITUTE OF SCIENCE EDUCATION AND RESEARCH, priority 2018, dated 2023)

Assays:
[1] = target: T1, recombinant human caspase-3 His tagged enzyme (rcaspase-3) (Homo sapiens, UniProt P42574); test: In-gel fluorescence labelling of purified rcaspase-3 by fABP; format: binding
T1 construct: The purified rcaspase-3 was confirmed with the two peaks obtained at 12939 and 16598 Da; His tag; made in house
T1 sequence (P42574 29-175 limits assumed): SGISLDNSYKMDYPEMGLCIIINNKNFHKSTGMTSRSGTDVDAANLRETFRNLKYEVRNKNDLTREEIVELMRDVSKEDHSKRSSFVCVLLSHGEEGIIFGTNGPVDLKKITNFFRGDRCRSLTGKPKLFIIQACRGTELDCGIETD
T1 sequence (P42574 176-277 limits assumed): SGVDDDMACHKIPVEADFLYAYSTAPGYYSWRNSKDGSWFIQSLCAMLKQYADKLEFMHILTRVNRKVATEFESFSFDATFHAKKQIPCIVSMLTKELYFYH
Experimental: FIG. 4 depicts (a) labelling of purified rcaspase-3 (2 μM) by probe 1 at a concentration of 100, 500 and 2000 nM. (b) integrated band intensity values. (c) The specificity of probe 1 (1 μM) to label active enzyme (500 nM); (lane 1: active rcaspase-3 in the presence of probe 1, lane 2: thermally denatured rcaspase-3 in the presence of probe 1.
To establish AbRGT, the specific activation of caspase-3 GFPspark was monitored, in the apoptosis signalling pathway, using fABP, Rhodamine-VAD-fluoromethyl ketone (Rh-VAD-FMK) probe (probe 1) (Micale et al., JACS, 2004) [FIG. 2(a)] in MCF-7 cells. Here, rhodamine is the fluorescent tag, VAD is the peptide recognition sequence for caspases and FMK is the reactive warhead for targeting pan-caspases. Before monitoring the specific caspase-3 activation in the native cellular environment, the active-site labelling of probe 1 to the caspase-3 enzyme in in vitro conditions was first validated. The recombinant human caspase-3 His tagged enzyme (rcaspase-3) was expressed and purified using Ni-NTA column chromatography (Stennicke et al., Methods, 1999). […] The labelled enzyme samples were then separated on a 12% SDS-PAGE gel and were visualized using an in-gel fluorescence scanner. […]

[2] = tested on: Jurkat cell lysate; test: In-gel fluorescence assay of off-target labelling in Jurkat cells; format: cell-based; details: Jurkat cell lysate 2 μg/μL, probe 1 μM
Experimental: FIG. 5 depicts cellular off-target labelling of the probe 1 shown in Jurkat cells 2.5 million Jurkat cells were incubated with 1 μM probe 1 in the (b) presence or (c) the absence of STS (1 μM) for 6 h. Cells are incubated (a) without and (d) with the probe 1 and STS. Cells comprising labelled enzymes were lysed and analyzed by 12% SDS-PAGE followed by scanning for rhodamine fluorescence (Ex: 561 nm, Em: 605 nm) with a flat-bed laser scanner.
To rule out that the obtained FRET signal in [FIG. 2b (i)] is not because of random physical interaction between GFPspark and rhodamine dye, MCF-7 cells were transfected with a plasmid encoding for enhanced green fluorescent protein (EGFP). EGFP transfected MCF-7 cells were treated with STS (1 μM) for 4 h, labelled with the probe 1. […] In-gel fluorescence assay was also performed to validate the multiple off-targets labelling of probe 1 which has also been shown in the previous reports. […] The calculated FRET efficiency for (n=15 cells) is 35±1%. […] Caspase-3 activation was also monitored using probe 2 as fABP which is different from probe 1 in terms of peptide recognition sequence; DEVD in exchange for VAD as DEVD peptide sequence is more specific for caspases as compared to VAD. Probe 2 yielded a similar pattern of fluorescence signal in GFPspark, FRET and Rh channel as that of probe 1 [FIG. 7(a)]. The calculated FRET efficiency was 35% [FIG. 7(b)]. […]

[3] = tested on: enhanced green fluorescent protein (EGFP); test: EGFP control for random GFP-rhodamine interaction in MCF-7 cells; format: cell-based; details: MCF-7, EGFP plasmid, STS 1 μM 4 h, labelled with probe 1
Experimental: FIG. 2 depicts (a) a schematic representation of AbRGT in determining the specific activation of caspase-3 GFPspark tagged enzyme by FRET effect utilizing Rh-VAD-FMK (probe 1). (b) The fluorescence signal was collected in GFP, FRET and Rhodamine (Rh) channels. MCF-7 cells transfected with caspase-3 GFPspark treated with (i) 1 μM STS for 4 h or (ii) 1 μg/ml TRAIL for 5 h and then labelled with probe 1. (iii) Un-transfected MCF-7 cells were treated with 1 μM STS for 4 h and then labelled with the probe 1. MCF-7 cells transfected with enhanced green fluorescent protein (EGFP) plasmid treated (iv) with 1 μM STS or (v) without STS for 4 h and then labelled with probe 1, scale bar, 10 a.u. […] Images for GFP and rhodamine fluorescence signals were collected in GFP and FRET channels pre- and post-bleaching of rhodamine signals. (d) Quantification of change in GFP fluorescence intensity after rhodamine photo-bleaching in both unbleached control region and rhodamine bleached region, region of interest (ROI), area under the white square. […]
To rule out that the obtained FRET signal in [FIG. 2b (i)] is not because of random physical interaction between GFPspark and rhodamine dye, MCF-7 cells were transfected with a plasmid encoding for enhanced green fluorescent protein (EGFP). […] The calculated FRET efficiency for (n=15 cells) is 35±1%. […] The calculated FRET efficiency was 35% [FIG. 7(b)]. […]

[4] = target: T2, caspase-3 (Homo sapiens, UniProt P42574); details: previously shown; cited from earlier work
T2 sequence (P42574 29-175 limits assumed): T1 sequence (P42574 29-175 limits assumed)
T2 sequence (P42574 176-277 limits assumed): T1 sequence (P42574 176-277 limits assumed)

In the case of “Rhodamine-VAD-fluoromethyl ketone [probe 1]”, the “fluorescence signal after thermal denaturation of rcaspase-3 before labelling” value ([1]; probe 1 μM, enzyme 500 nM) was “completely abolished”, the “concentration at which probe effectively labelled rcaspase-3” value ([1]; rcaspase-3 2 μM, probe 100, 500, 2000 nM, SDS-PAGE in-gel fluorescence) was no more than 100 nM and the “off-target labelling, bands on SDS-PAGE gel upon rhodamine excitation” value [2] was “multiple bands”. The “fluorescence signal in FRET channel, EGFP transfected cells” value [3] was “no fluorescence signal was observed”, the “affinity for caspase-3” value [4] was “moderate affinity” and the “selectivity for caspase-3” value [4] was “low selectivity”.
